Results reported in patent US20090111733A1, “PAR-4 RELATED METHODS AND COMPOSITIONS” (President and Fellows of Harvard College, priority 2006, published 2009).

Tests used:
[1] = system: dopamine-mediated cAMP signaling; assay: cAMP accumulation in cultured primary striatal neurons from wild type and Par-4ΔLZ embryos (cAMP EIA); type: cell-based, mouse; conditions: for upregulation of cAMP signaling comparable to that with dopamine: Par-4ΔLZ striatal neurons
Method: DIV 11-14 neurons cultured in 24 well-plates were replaced with neurobasal media supplemented with 10 mM HEPES (pH7.4) containing drugs indicated for 50 min at room temperature, cells were lysed in 200 μl of 0.1M HCl solution for 15 min with gentle shaking and spun in the microcentrifuge tubes. cAMP concentration of the supernatant was measured using the cAMP-Enzyme Immunoassay Kit (Assay Designs) following manufacture's instructions. Concentrations of cAMP were normalized using protein concentrations measured by Biorad Protein Assay System (Bio-rad).

[2] = molecular target: T1, D2i3 (third intracellular loop of the long isoform of human D2DR) (Homo sapiens, UniProt P14416); assay: In vitro binding assay with purified GST-D2i3 and Par-4LZ proteins; conditions: in the presence of Ca2+
T1 construct: A long isoform of D2i3 (amino acid 212-373) was amplified from a human D2DR cDNA clone; made in house; host or cells: E. coli BL21
T1 sequence (P14416 212-241): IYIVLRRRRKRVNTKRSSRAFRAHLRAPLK
Method: (§1) pPC97-D2i3 and pPC86-Par-4LZ plasmids were digested with SalI and NotI and cloned into pGEX4T-2 (Amersham-Pharmacia) using the same restriction sites to make GST-D2i3 and GST-Par-4LZ fusion proteins, respectively. GST-fusion proteins were expressed in BL21 bacteria and purified following manufacturer's instruction. For the in vitro binding assay, 500 nmoles of GST-Par-4LZ fusion protein in PBS was digested with 0.2 NIH units of thrombin (Sigma) for 2 hours at room temperature and the reaction was stopped by adding PMSF (10 μM, Sigma) and incubated for an additional 1 hour at 4° C. The GST portion of the digested protein was removed by glutathione sepharose (Amersham-Pharmacia). The supernatant was equilibrated to final 1× binding buffer (200 mM NaCl, 0.2% Triton X-100, 0.2mg/ml BSA and 50 mM Tris, pH 7.5). Binding reaction was initiated by adding 500 nmoles of GST-D2i3 (50 nM of GST-D2i3^221-241 in the competition assay) to Par-4LZ protein in the 1× binding buffer and incubated for 2-3 hours at 4° C. GST-D2i3 was precipitated using 100 μl of 10% glutathione sepharose in 1× binding buffer. The precipitate was washed 3 times with 1× binding buffer and resuspended in 2× SDS sample loading buffer.

[3] = molecular target: GST-D2i3 (GST fusion of the third intracellular loop of the long isoform of human D2DR, amino acid residues 212-373) (human); assay: in vitro GST pull-down with purified proteins
[4] = system: Par-4/D2DR association; assay: Co-immunoprecipitation of Par-4 with D2DR-EGFP in the stable D2DR-EGFP cell line; type: cell-based, human
[5] = system: Par-4 nuclear translocation; assay: Par-4 nuclear translocation in cultured striatal neurons; type: cell-based; conditions: activation of glutamate receptors
[6] = system: CREB S133 phosphorylation
Method: The cells were mechanically dissociated by triturating with a fine polished glass pipette, diluted in Neurobasal media (Invitrogen) supplemented with 10% horse serum and 10 mM HEPES (pH7.2), and plated in a dish coated with poly-D-lysine (Sigma) and laminin (Sigma). Cultured DIV12-13 mouse neurons were lysed for 30 min at 4° C. with gentle shaking in the extraction buffer (50 mM Tris pH8.0, 50 mM NaCl, 1.0% NP-40, 0.5% sodium deoxycholate, 0.1% SDS, 1 mM EDTA, 1 mM EGTA, 1 mM NaF, 20 mM Na4P2O7, 2 mM Na3VO4, 10% glycerol) supplemented with protease inhibitor cocktail (Sigma). Cell lysates were centrifuged for 15 min at 12,000 g at 4° C. and the supernatants were applied to ELISA using the Immunoassay kits for total CREB and […] phospho-CREB (Biosource) following the manufacturer's instruction.

[7] = molecular target: T2, D2i3 (third intracellular loop of the long isoform of human D2DR) (Homo sapiens, UniProt P14416); assay: In vitro binding assay with purified GST-D2i3 and Par-4LZ proteins; conditions: equimolar amount of GST-D2i3 protein
T2 construct: A long isoform of D2i3 (amino acid 212-373) was amplified from a human D2DR cDNA clone; made in house; host or cells: E. coli BL21
T2 sequence (P14416 212-373): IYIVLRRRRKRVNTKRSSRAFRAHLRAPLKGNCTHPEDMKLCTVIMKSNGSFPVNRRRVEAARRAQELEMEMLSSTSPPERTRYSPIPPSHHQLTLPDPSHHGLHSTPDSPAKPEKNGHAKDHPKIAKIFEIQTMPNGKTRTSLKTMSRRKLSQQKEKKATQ
Method: as §1

## CCN1CCCC1CNC(=O)c1cc(S(N)(=O)=O)ccc1OC (stereo not shown) [sulpiride]
[1]; Par-4ΔLZ neurons, co-treated with dopamine
  cAMP response to dopamine: no such effect
[1]; wild type neurons, co-treated with 1-10 μM dopamine
  cAMP response to dopamine: enhanced

## calmodulin
[2]
  interaction of Par-4LZ with D2i3 in the presence of increasing calmodulin levels: effectively interfered

## Par-4LZ protein (purified; human Par-4 amino acid residues 245-342, leucine zipper domain)
[3]
  percent of total protein pulled down: 50%

## NCCc1c[nH]c2ccc(O)cc12 [serotonin]
[1]
  upregulation of cAMP signaling comparable to that with dopamine: not detected

## NC[C@H](O)c1ccc(O)c(O)c1 [norepinephrine]
[1]
  upregulation of cAMP signaling comparable to that with dopamine: not detected

## C[C@H](CCC(=O)O)C[C@H](C)C[C@H](C)C(=O)/C=C(\O)[C@H](C)C[C@H](C)C/C=C/[C@@H](C)[C@@H](O)[C@@H](C)[C@@H](O)C[C@@H]1CC[C@@](C)([C@H]2CC[C@@](C)([C@@H](C)O)O2)O1 [ionomycin]
[4]
  co-immunoprecipitation of Par-4 with D2DR-EGFP: significantly reduced

## N[C@@H](CCC(=O)O)C(=O)O [glutamate]
[5]
  nuclear translocation of Par-4: induce nuclear translocation

## NCCc1ccc(O)c(O)c1 [dopamine]
[1]; Par-4ΔLZ mutant neurons, 1-10 μM of dopamine
  cAMP levels: markedly elevated
[6]; Par-4ΔLZ neurons
  dopamine-induced downregulation of CREB S133 phosphorylation: not observed
[6]; wild type neurons, dose-dependent
  CREB S133 phosphorylation: significantly decreased

## C/C=C(/C)C(=O)O[C@H]1C(C)=C2[C@H]([C@@H]1OC(=O)CCCCCCC)[C@@](C)(OC(C)=O)C[C@H](OC(=O)CCC)[C@@]1(O)[C@H]2OC(=O)[C@@]1(C)O [thapsigargin]
[4]
  co-immunoprecipitation of Par-4 with D2DR-EGFP: significantly reduced

B1: Par-4LZ: human Par-4 amino acid residues 245-342 that harbor the leucine zipper domain (protein)
chain: DRSGFPRYNRDANVSGTLVSSSTLEKKIEDLEKEVVRERQENLRLVRLMQDKEEMIGKLKEEIDLLNRDLDDIEDENEQLKQENKTLLKVVGQLTR
[7]
  fraction of total Par-4LZ protein pulled down by GST-D2i3: Approximately 50%
